Patent US4296108A, “2,2-Dichlorocyclopropyl-methyl-phosphoric acid derivatives” (priority 1979, dated 1981)

What was measured:
Format in all cases: in vivo
[1] = system: cockroaches (Blatta orientalis); assay: whole plant or invertebrate; conditions: 48 hours; for mortality at 0.1 mg: 0.1 mg active ingredient per jar; for mortality at 0.2 mg: 0.2 mg active ingredient per jar
Procedure: Contact action on cockroaches (Blatta orientalis)
The bottom of 1-liter preserving jars is treated with acetonic solutions of the active ingredients. After the solvent has evaporated, 5 adult cockroaches are placed in each jar, and the kill rate is determined after 48 hours.

[2] = system: houseflies (Musca domestica); assay: whole plant or invertebrate; conditions: 4 hours; for mortality at 0.02 mg: 0.02 mg active ingredient per dish
Procedure: Continuous contact action on houseflies (Musca domestica)
Both covers and bottoms of Petri dishes 10 cm in diameter are lined with a total per dish of 2 ml of acetonic solutions of the active ingredients. After the solvent has evaporated (about 30 mins.), 10 flies are introduced into each dish. The kill rate is determined after 4 hours.

[3] = system: ticks (Ornithodorus moubata); assay: Contact action on ticks (Ornithodorus moubata); conditions: 3rd larval stage, 48 hours
Procedure: Contact action on ticks (Ornithodorus moubata)
Ticks in the 3rd larval stage are placed in paper bags and dipped for 3 seconds in the emulsion under investigation. The bags are then suspended. The action on the ticks is assessed after 48 hours.

[4] = system: bean aphids (Aphis fabae); assay: Contact action on bean aphids (Aphis fabae); spray experiment; conditions: 48 hours; for mortality at 0.005 %: 0.005 wt % in formulation; for mortality at 0.01 %: 0.01 wt % in formulation
Procedure: Contact action on bean aphids (Aphis fabae); spray experiment
Potted bean plants (Vicia faba) with extensive bean aphid colonies are sprayed to runoff in a spray booth with aqueous formulations of the active ingredients.
(§1) The action is assessed after 48 hours.

[5] = system: caterpillars of the diamondback moth (Plutella maculipennis); assay: Contact action and effect of ingested food on caterpillars of the diamondback moth (Plutella maculipennis); conditions: 4th stage caterpillars, 48 hours, read-out: Kill rate; for mortality at 0.02 %: 0.02 wt % in emulsion; for mortality at 0.001 %: 0.001 wt % in emulsion; for mortality at 0.01 %: 0.01 wt % in emulsion; for mortality at 0.002 %: 0.002 wt % in emulsion
Procedure: Contact action and effect of ingested food on caterpillars of the diamondback moth (Plutella maculipennis)
Leaves of young cabbage plants are dipped for 3 seconds in aqueous emulsions of the active ingredients and, after excess liquid has been briefly allowed to drip off, placed on a moist filter paper in a Petri dish. 10 caterpillars of the 4th stage are then placed on each leaf.
as §1

[6] = system: houseflies (Musca domestica); assay: Contact action on houseflies (Musca domestica), topical to ventral abdomen; conditions: 1 μl in acetone to ventral abdomen; 4-day old imagoes; 4 hours; worked out by graph
Procedure: Contact action on houseflies (Musca domestica)
1 μl of the active ingredients dissolved in acetone is administered by means of a microsyringe to the ventral abdomen of 4-day old imagoes under slight CO2 narcosis.
20 animals treated in the same way are then placed in a plastic bag having a volume of approx. 500 ml. After 4 hours, the animals in supine position are counted and the LD50 is worked out by means of a graph.

[7] = system: root-knot nematodes (Meloidogyne incognita); assay: Action on root-knot nematodes (Meloidogyne incognita); conditions: cucumber, 6 to 8 weeks
Procedure: Action on root-knot nematodes (Meloidogyne incognita)
Garden soil heavily infested with Meloidogyne incognita is split into 200 g portions which are intimately mixed with 30 ml of aqueous active ingredient formulations and filled into plastic pots. Two cucumber seeds are then placed in the soil prepared in this manner. The temperature is not allowed to go below +22° C.
After 6 to 8 weeks root attack is assessed.

[8] = Blatta orientalis, read-out: Kill rate
[9] = Musca domestica, 0.2 mg active ingredient per dish, read-out: Kill rate
[10] = Aphis fabae, 0.02 wt % in formulation, read-out: Kill rate
[11] = Musca domestica, read-out: Kill rate
[12] = Aphis fabae, read-out: Kill rate

In the case of `COP(=O)(OCC1(C)CC1(Cl)Cl)Oc1ccc(SC)cc1` (centres unmarked) [compound 21], the mortality at 0.1 mg [1, 8] is reported as 100%, the mortality at 0.2 mg [2, 9] is reported as 100% and the Kill rate ([3]; 1.0 ppm in emulsion) is reported as 100%.

With `COP(=O)(OCC1C(C)(C)C1(Cl)Cl)Oc1ccccc1[N+](=O)[O-]` (centres unmarked) [compound 14] the Kill rate ([3]; 10.0 ppm in emulsion) was 100%.

In the case of `CCOP(=O)(OCC1C(C)(C)C1(Cl)Cl)Oc1ccc([N+](=O)[O-])cc1` (centres unmarked) [Active ingredient 1, O-ethyl-O-[(2,2-dichloro-3,3-dimethyl-cyclopropyl)-methyl]-O-(4-nitrophenyl)phosphate], the mortality at 0.25 mg ([1]; Blatta orientalis, 0.25 mg active ingredient per jar, 5 adult cockroaches, read-out: Kill rate) is reported as 80%, the mortality at 0.02 % [4, 10] is reported as 100% and the mortality at 0.02 % [5] is reported as 100%. For the same compound, the Kill rate ([3]; 10.0 ppm in emulsion) was 100%.

Work on `COP(=O)(OCC1C(C)(C)C1(Cl)Cl)Oc1ccc(SC)cc1` (centres unmarked) [compound 17] yielded a mortality at 0.2 mg [2, 9] of 80% and a Kill rate ([3]; 2.5 ppm in emulsion) of 100%.

In the case of `COP(=S)(OC)Oc1cc(Cl)c(Cl)cc1Cl` [III], the mortality at 0.5 mg ([1]; Blatta orientalis, 0.5 mg active ingredient per jar, read-out: Kill rate) is reported as 100%, the LD50 [6] is reported as 0.13 μg/fly and the mortality at 0.02 % [5] is reported as 50%.

Compound `COP(=O)(OCC1CC1(Cl)Cl)Oc1ccc([N+](=O)[O-])cc1` (centres unmarked) [compound 27] has a mortality at 0.02 mg ([1]; Blatta orientalis, 0.02 mg active ingredient per jar, read-out: Kill rate) of 80%, a mortality at 0.02 mg [2, 11] of 100% and an LD50 [6] of 0.057 μg/fly. It also gave a mortality at 0.005 % [4, 12] of about 90%, a mortality at 0.001 % [5] of 100% and a Kill rate ([3]; 1.0 ppm in emulsion) of 100%.

`COP(=O)(OCC1C(C)C1(Cl)Cl)Oc1ccc(Cl)cc1Cl` (centres unmarked) [compound 29] gave a mortality at 0.02 % [4, 10] of 100%.

Work on `COP(=O)(OCC1C(C)(C)C1(Cl)Cl)Oc1ccc([N+](=O)[O-])cc1` (centres unmarked) [compound 7] yielded a mortality at 0.2 mg [1, 8] of 100%, a mortality at 0.2 mg [2, 9] of 100% and a mortality at 0.01 % [4, 12] of about 90%. It also gave a mortality at 0.01 % [5] of 80% and a Kill rate ([3]; 10.0 ppm in emulsion) of 100%.

`CCOP(=S)(Oc1ccc(Cl)cc1Cl)c1ccccc1` (centres unmarked) [II] was tested, and the Kill rate ([1]; 1.0 mg active ingredient per jar) was “ineffective”, the Kill rate ([2]; 0.2 mg active ingredient per dish) was “ineffective” and the Kill rate ([4]; 0.02 wt % in formulation) was under 80%.

In the case of `COP(=O)(OCC1CC1(Cl)Cl)Oc1ccc(Cl)cc1Cl` (centres unmarked) [compound 26], the mortality at 0.2 mg [2, 9] is reported as 100% and the mortality at 0.02 % [4, 10] is reported as 100%.

`COP(=O)(OCC1CC1(Cl)Cl)Oc1cc(Cl)c(Cl)cc1Cl` (centres unmarked) [Active ingredient 4, O-methyl-O-[(2,2-dichloro-cyclopropyl)-methyl]-O-(2,4,5-trichlorophenyl)phosphate] was tested, and the mortality at 0.02 mg [2, 11] was 100%, the LD50 [6] was 0.055 μg/fly and the mortality at 0.01 % [4, 12] was about 90%. The Kill rate ([3]; 5.0 ppm in emulsion) was 100%.

Compound `COP(=O)(OCC1CC1(Cl)Cl)Oc1ccc(C#N)cc1` (centres unmarked) [compound 23] has a mortality at 0.1 mg [1, 8] of 100%, a mortality at 0.02 mg [2, 11] of 100% and an LD50 [6] of 0.073 μg/fly. The mortality at 0.005 % [4, 12] was about 90%, the mortality at 0.001 % [5] was 80% and the Kill rate ([3]; 1.0 ppm in emulsion) was 100%.

`COP(=O)(OCC1CC1(Cl)Cl)Oc1ccc(SC)cc1` (centres unmarked) [compound 24] was tested, and the mortality at 0.1 mg [1, 8] was 100%, the mortality at 0.02 mg [2, 11] was 100% and the LD50 [6] was 0.051 μg/fly. It also gave a mortality at 0.002 % ([4]; Aphis fabae, 0.002 wt % in formulation, read-out: Kill rate) of 100%, a mortality at 0.002 % [5] of 80% and a Kill rate ([3]; 1.0 ppm in emulsion) of 100%.

`COP(=O)(OCC1(C)CC1(Cl)Cl)Oc1ccc([N+](=O)[O-])cc1Cl` (centres unmarked) [compound 32] was tested, and the mortality at 0.2 mg [2, 9] was 100%, the mortality at 0.008 % ([4]; Aphis fabae, 0.008 wt % in formulation, read-out: Kill rate) was 100% and the Kill rate ([3]; 10.0 ppm in emulsion) was 100%.

`COP(=O)(OCC1CC1(Cl)Cl)Oc1ccc(SC)c(C)c1` (centres unmarked) [compound 25] showed a mortality at 0.2 mg [1, 8] of 100%, a mortality at 0.02 mg [2, 11] of 80% and a mortality at 0.005 % [4, 12] of 100%. The mortality at 0.002 % [5] was 80% and the Kill rate ([3]; 10.0 ppm in emulsion) was 100%.

`COP(=O)(OCC1(C)CC1(Cl)Cl)Oc1ccc([N+](=O)[O-])cc1` (centres unmarked) [compound 10] gave a mortality at 0.04 mg ([1]; Blatta orientalis, 0.04 mg active ingredient per jar, read-out: Kill rate) of 100%, a mortality at 0.2 mg [2, 9] of 100% and a mortality at 0.01 % [4, 12] of 100%. The mortality at 0.01 % [5] was 100% and the Kill rate ([3]; 10.0 ppm in emulsion) was 100%.

`COP(=O)(OCC1C(C)C1(Cl)Cl)Oc1cc(Cl)c(Cl)cc1Cl` (centres unmarked) [compound 28] gave a mortality at 0.2 mg [2, 9] of 80% and a mortality at 0.02 % [4, 10] of 100%.

`COP(=S)(OC)Oc1ccc([N+](=O)[O-])c(C)c1` [IV] was tested, and the Kill rate ([1]; 0.25 mg active ingredient per jar, 5 adult cockroaches) was “ineffective”.

`CCOP(=O)(OCC1C(C)(C)C1(Cl)Cl)Oc1ccc(SC)c(C)c1` (centres unmarked) [compound 19] gave a Kill rate ([3]; 10.0 ppm in emulsion) of 100%.

For `CCOP(=S)(OCC)SCC1CC1(Cl)Cl` (centres unmarked) [I], the mortality at 5 mg ([1]; Blatta orientalis, 5.0 mg active ingredient per jar, read-out: Kill rate) was 100%, the mortality at 2 mg ([2]; Musca domestica, 2.0 mg active ingredient per dish, read-out: Kill rate) was 100% and the mortality at 0.1 % ([4]; Aphis fabae, 0.1 wt % in formulation, read-out: Kill rate) was under 50%. The mortality at 0.1 % ([5]; 0.1 wt % in emulsion) was 50% and the “root attack (root-knots)” value ([7]; 0.1 % active ingredient concentration, ditto mark repeats "no root-knots") was “sporadic root-knots”.

Compound `COP(=O)(OCC1C(C)(C)C1(Cl)Cl)Oc1ccc(SC)c(C)c1` (centres unmarked) [compound 20] has a Kill rate ([3]; 2.5 ppm in emulsion) of 100%.

With `COP(=O)(OCC1CC1(Cl)Cl)Oc1ccccc1[N+](=O)[O-]` (centres unmarked) [Active ingredient 3, O-methyl-O-[(2,2-dichlorocyclopropyl)-methyl]-O-(2-nitrophenyl)phosphate] the mortality at 0.005 % [4, 12] was 100%.

Work on `COP(=O)(OCC1C(C)C1(Cl)Cl)Oc1ccc(SC)cc1` (centres unmarked) [compound 30] yielded a mortality at 0.2 mg [2, 9] of 100%, a mortality at 0.01 % [4, 12] of 100% and a Kill rate ([3]; 10.0 ppm in emulsion) of 100%.

For `COP(=O)(OCC1(C)CC1(Cl)Cl)Oc1ccc([N+](=O)[O-])c(C)c1` (centres unmarked) [compound 33], the mortality at 0.2 mg [2, 9] was 80% and the mortality at 0.01 % [4, 12] was 100%.

`CCOP(=O)(OCC1C(C)(C)C1(Cl)Cl)Oc1ccc(SC)cc1` (centres unmarked) [compound 18] showed a Kill rate ([3]; 2.5 ppm in emulsion) of 100%.

In the case of `COP(=O)(OCC1(C)CC1(Cl)Cl)Oc1cc(Cl)c(Cl)cc1Cl` (centres unmarked) [compound 16], the “root attack (root-knots)” value ([7]; 0.05 % active ingredient concentration) is reported as “no root-knots”.

`COP(=O)(OCC1C(C)C1(Cl)Cl)Oc1ccc([N+](=O)[O-])cc1` (centres unmarked) [compound 31] gave a mortality at 0.2 mg [1, 8] of 100%, a mortality at 0.01 % [5] of 80% and a Kill rate ([3]; 5.0 ppm in emulsion) of 100%.
